# Values quoted from earlier work as cited in patent publication US6700032B1, “Wound care management” (Leatherite Pty Limited, priority 1996, dated 2004).
# Conditions: recommended concentrations
substance,measurement,value
"2,4,4′-trichloro-2′-hydroxy diphenyl ether [Triclosan]",toxicological testing,safe at recommended concentrations
